# Test results: patent US9226913B2, “Methods of treating cancer using a combination of an immunomodulatory compound and an artemisinin or a derivative thereof” (Celgene Corporation, priority 2010, dated 2016)
# What was measured:
# [1] = tested on: KM cells; assay: MTT proliferation assay, 72 hr (Example 6.1); type: cell-based; details: Homo sapiens, KM (melanoma), 72 hours treatment, mean ± SD of at least 3 experiments
# Procedure: (§1) The human cancer cell lines; MCF7 (breast), HCT116 and SW480 (colon) (Cancer Research UK, London, UK), KM and MJT3 (melanoma) (in house), PANC1 and MIAPaCa (pancreas) (European Collection of Cell Cultures, Salisbury, UK) were grown in either DMEM (Sigma) or RPMI (Sigma) media supplemented with 10% foetal bovine serum, 2 mM L-glutamine, 1% penicillin/streptomycin.
# (§2) To study the effect of ATM and ART on cell growth, cells growing exponentially were added to 96-well plates at a density of 3×10^4/well. Drugs (0.1-100 μM) were then added to the wells, ensuring an equal volume of 200 μL across the plate. Cell number/proliferation was measured at 72 hr using a standard methylthiazoletetrazolium (MTT)-based assay without modifications. Briefly, MTT (Sigma) was added to each well to give a working concentration of 0.4 mg/ml, and plates returned to the incubator for a further 1 hr. After this time, the medium was aspirated off, 200 μL of DMSO was then added to each well, and plates agitated gently for 5 min before measuring optical density at 540 nm in each well.
# [2] = tested on: MiaPaCa3 cells; assay: MTT proliferation assay, 72 hr (Example 6.1); type: cell-based; details: Homo sapiens, MiaPaCa3 (pancreas), 72 hours treatment, mean ± SD of at least 3 experiments
# Procedure: as §1, §2
# [3] = tested on: PANC1 cells; assay: MTT proliferation assay, 72 hr (Example 6.1); type: cell-based, human; details: for IC50: Homo sapiens, PANC-1, PANC1 (pancreas), 72 hours treatment, MTT, mean ± SD of at least 3 experiments
# Procedure: as §1
# as §2, with “Drugs (0.1-100 μM) were then added to the wells, ensuring an equal volume of 200 μL across the plate.” left out
# [4] = tested on: HCT116 cells; assay: MTT proliferation assay, 72 hr (Example 6.1); type: cell-based, human; details: for IC50: Homo sapiens, HCT-116, HCT116 (colon), 72 hours treatment, MTT, mean ± SD of at least 3 experiments
# Procedure: as §1, §2
# [5] = tested on: MCF7 cells; assay: MTT proliferation assay, 72 hr (Example 6.1); type: cell-based, human; details: for IC50: MCF7 (breast), 72 hours treatment, MTT, mean ± SD of at least 3 experiments
# Procedure: as §1, §2
# [6] = tested on: MJT3 cells; assay: MTT proliferation assay, 72 hr (Example 6.1); type: cell-based, human; details: for IC50: Homo sapiens, MJT3 (melanoma), 72 hours treatment, MTT, mean ± SD of at least 3 experiments
# Procedure: as §1, §2
# [7] = tested on: SW480 cells; assay: MTT proliferation assay, 72 hr (Example 6.1); type: cell-based, human; details: for IC50: Homo sapiens, SW480 (colon), 72 hours treatment, MTT, mean ± SD of at least 3 experiments
# Procedure: as §1, §2
# [8] = tested on: HCT116 cells; assay: Flow cytometric analysis of the cell cycle (Example 6.1); type: cell-based, human
# Procedure: (§3) Cells were cultured with equi-active concentrations (˜IC25) of ART or ATM for 72 hrs, before fixing in 70% (v/v) ethanol in PBS. Following an incubation period of at least 30 mins, cells were washed and re-suspended in a DNA staining solution (1 mg/mL propidium iodide and 1 ng/mL RNAse A (both Sigma). Acquisition of data was performed within 1 h using a Becton Dickinson FACSCalibur (BD Biosciences), and gating was employed to remove doublet artefacts and to discriminate cells from debris. Ten thousand cells were analysed, and the percentages of cells in G1, S and G2/M phases were determined using the cell cycle analysis program WinMDI CellQuest v2.9 (http://facs.scripps.edu/software.html).
# [9] = tested on: MCF7 cells; assay: as above; type: cell-based, human
# Procedure: as §3
# [10] = tested on: SW480 cells; assay: as above; type: cell-based, human; details: SW480, equi-active (~IC25) concentration, 72 hrs
# Procedure: as §3
# [11] = tested on: Bax; assay: Immunoblotting analysis (Example 6.1); type: cell-based, human; details: immunoblotting of treated cultures
# Procedure: (§4) Cells were harvested and total cellular protein was solubilised in lysis buffer (New England Biolabs, Hitchin, UK) and resolved by Tris-glycine electrophoresis using a 4-12% bis-tris gradient-gel according to the method of Laemmli (Laemmli UK. 1970. Nature, 227(5259):680-5). Following transfer of proteins to nitrocellulose membranes (0.45 μm), blocking was performed in 5% (w/v) non-fat milk in TTBS [0.5% (v/v) Tween-20 in TBS (50 mM Tris, 150 mM NaCl, pH 8.0)]. Primary antibody probing was performed with anti-p53, anti-p21, anti-Bax, anti-CDK4, anti-cyclin D1 or anti-pRb. All primary antibodies were obtained from New England Biolabs (Hitchin, UK) and used at a dilution of 1:1,000, unless stated otherwise. Anti-GAPDH was used as a loading control (1:2,000—New England). Following five washing steps in TTBS, horseradish peroxidase-conjugated anti-species IgG1 was used as the secondary antibody (Amersham Biosciences Ltd., Little Chalfont, UK). Bands were visualised by the ECL-plus detection system (Amersham).
# [12] = tested on: cyclin D1 and CDK 4; assay: Immunoblotting analysis (Example 6.1); type: cell-based, human; details: whole cell lysates, equi-active (~IC25) concentrations, 72 hrs
# Procedure: as §4
# [13] = tested on: p21^waf1cip1; assay: Immunoblotting analysis (Example 6.1); type: cell-based, human; details: whole cell lysates, ~IC25, 72 hrs
# Procedure: as §4
# [14] = tested on: pRb; assay: Immunoblotting analysis (Example 6.1); type: cell-based, human; details: in each cell line (HCT116, SW480, MCF7)
# Procedure: as §4
# [15] = tested on: HCT116, SW480 and MCF7 cells; assay: Combination with OXP at fixed ratio, nature of interaction (Example 6.1); type: cell-based, human; details: combined with OXP, median effect analysis
# From the text: This combination studies followed an approach previously described (Liu et al. 2008, Leuk Lymphoma, 49(9):1800-9).
# [16] = tested on: human cancer cell lines; assay: Trypan blue dye exclusion in parallel to MTT (Example 6.1); type: cell-based; details: in parallel to the MTT assay; data not shown
# [17] = tested on: Plasmodium falciparum; details: Haynes 2006; Vivas 2007; Ramharter 2006; cited from earlier work
# [18] = Nagelschmitz et al., 2008; cited from earlier work
# [19] = tested on: A549 cells; assay: MTT proliferation assay, 72 hr (Example 6.2); type: cell-based, human; details: Homo sapiens, A549, 72 h, mean ± SD of at least five experiments
# Procedure: (§5) The human cancer cell lines; MCF7 (breast), HCT116 (colon) and A549 (lung) (Cancer Research UK, London, UK), were grown in either DMEM (Sigma) or RPMI (Sigma) media supplemented with 10% foetal bovine serum, 2 mM L-glutamine, 1% penicillin/streptomycin.
# as §2, with “each agent” for “ATM and ART”, “μl” for “μL”, “number” for “number/proliferation”, “modifications as described previously (Gordi et al., 2004, Toxicol. Lett. 147: 99-107).” for “modifications.”
# [20] = tested on: HCT116^norm cells; assay: MTT proliferation assay, 72 hr (Example 6.2); type: cell-based, human; details: Homo sapiens, 72 h, MTT, mean ± SD of at least five experiments, read-out: IC50
# Procedure: as §5
# as §2, with “each agent” for “ATM and ART”, “μl” for “μL”, “number” for “number/proliferation”, “modifications as described previously (Gordi et al., 2004, Toxicol. Lett. 147: 99-107).” for “modifications.”
# [21] = tested on: MCF7 cells; assay: MTT proliferation assay, 72 hr (Example 6.2); type: cell-based, human; details: Homo sapiens, MCF7, 72 h, mean ± SD of at least five experiments
# Procedure: as §5
# as §2, with “each agent” for “ATM and ART”, “μl” for “μL”, “number” for “number/proliferation”, “modifications as described previously (Gordi et al., 2004, Toxicol. Lett. 147: 99-107).” for “modifications.”
# [22] = tested on: Bax; assay: Immunoblotting analysis (Example 6.2); type: cell-based, human
# Procedure: (§6) Cells were harvested and total cellular protein was solubilised in lysis buffer (New England Biolabs, Hitchin, UK) and resolved by Tris-glycine electrophoresis using a 4-12% bis-tris gradient-gel. Following transfer of proteins to 0.45 μm nitrocellulose membranes, blocking was performed in 5% (w/v) non-fat milk in TTBS [0.5% (v/v) Tween-20 in TBS (50 mM Tris, 150 mM NaCl, pH 8.0)]. Primary antibody probing was performed with anti-p21, anti-Bax, anti-CDK4, anti-cyclin D1, anti-pRb or anti-cyclin B1. All primary antibodies were obtained from New England Biolabs (Hitchin, UK) and used at a dilution of 1:1,000, unless stated otherwise. Anti-GAPDH was used as a loading control (1:2,000—New England). Following three washing steps in TTBS, horseradish peroxidase-conjugated anti-species IgG was used as the secondary antibody (Amersham Biosciences Ltd., Little Chalfont, UK). Bands were visualised by the ECL-plus detection system (Amersham).
# [23] = tested on: cyclin B; assay: Immunoblotting analysis (Example 6.2); type: cell-based, human
# Procedure: as §6
# [24] = tested on: HCT116^poly cells; assay: MTT proliferation assay, 72 hr (Example 6.2); type: cell-based, human; details: Homo sapiens, HCT116^poly (polyploid extended-passage variant)
# Procedure: as §2, with “each agent” for “ATM and ART”, “μl” for “μL”, “number” for “number/proliferation”, “modifications as described previously (Gordi et al., 2004, Toxicol. Lett. 147: 99-107).” for “modifications.”
# [25] = tested on: all the cell lines (A549, HCT116^norm, MCF7); assay: Effect of low LEN concentrations alone on cell numbers and viabilities (Example 6.2); type: cell-based, human; details: LEN alone at 0.1 and 1 μM
# Procedure: Median-effect analysis of combination requires the extrapolation of an IC50-value. Where this was not possible, the inventors explored the effect of combining drugs by fixing the concentration of GEM or LEN (modulating agent) and testing its ability to influence the activity of ART (drug partner). […] ART was diluted in growth medium and added to the plates in a range of drug concentrations to allow determination of IC50. The effect on these IC50 values of co-culture with a sub-optimal concentration (˜IC20) of GEM or LEN was then tested. Cell numbers at 72 hr were assessed by the MTT assay as previously described. This enabled the assessment of the nature of any drug-drug interaction by comparing the IC50 for ART in the presence and absence of the combinatorial drug partner.
# The lack of a dose-response in the cells rendered the primary model of drug-drug interaction ineffectual for combinations of ART with LEN. For this reason the inventors next tested the ability of LEN to sensitise cells to ART. These combinatorial analyses were performed in all the cell lines using a smaller concentration of LEN (0.1 and 1 μM). These concentrations had little effect on cell numbers and viabilities.
compound,measurement,setting,value
"C[C@@H]1CC[C@H]2[C@@H](C)C(=O)O[C@@H]3O[C@@]4(C)CC[C@@H]1[C@]32OO4 [Artemisinin, artemisinin]",IC50,[1],101 ± 15 µM
same,IC50,[2],31 ± 13 µM
same,IC50,[3],> 1000 µM
same,IC50,[4],204 ± 88 µM
same,IC50,"[5]; Homo sapiens, MCF7, 72 h",44 ± 15 µM
same,IC50,[6],> 1000 µM
same,IC50,[7],156 ± 38 µM
"C[C@H]1[C@H](N2CCS(=O)(=O)CC2)O[C@@H]2O[C@@]3(C)CC[C@H]4[C@H](C)CC[C@@H]1[C@@]24OO3 [Artemisone, artemisone]",IC50,[1],6.4 ± 2.1 µM
same,IC50,[2],14 ± 10 µM
same,IC50,[3],> 1000 µM
same,impact on cell number,"[3]; p53-mutant, resistant PANC1 cell line",neither drug had an impact
same,susceptibility to ATM relative to ART,"[4]; HCT116, comparison of IC50",around 30 ×
same,IC50,[4],9.5 ± 0.9 µM
same,IC50,"[5]; Homo sapiens, MCF7, 72 h",0.5 µM
same,IC50 less for ATM than its precursor ART,[5]; MCF7,around 80 fold
same,IC50,[5],0.56 ± 0.17 µM
same,IC50,[6],30 ± 26 µM
same,effect on cell number,"[6]; MJT3 cells, MTT 72 hr",significantly reduced cell number
same,IC50,[7],4.5 ± 1.6 µM
same,susceptibility to ATM relative to ART,"[7]; SW480, comparison of IC50",around 30 ×
same,apoptotic/sub-G1 phase of the cell cycle,"[8]; HCT116, equi-active (~IC25) concentration, 72 hrs",no increase
same,"distribution of cells within the G1, S and G2 phases","[8]; HCT116, ~IC25, 72 hrs",did not alter the distribution
same,apoptotic/sub-G1 phase of the cell cycle,"[9]; MCF7, equi-active (~IC25) concentration, 72 hrs",no increase
same,cell cycle effect,"[9]; MCF7, ~IC25, 72 hrs",G1-selective blockade
same,cells in G1,"[9]; MCF7, ~IC25, 72 hrs, untreated 63±4.40%, p=0.015",83±5.5%
same,apoptotic/sub-G1 phase of the cell cycle,[10],no increase
same,pro-apoptotic protein Bax,[11],no increase
same,levels of cyclin D1 and its associated CDK 4,[12],significantly reduced
same,levels of the general CDK inhibitor p21^waf1cip1,[13],generally unchanged
same,levels of pRb,[14],dramatic reduction
same,nature of interaction with OXP,[15],additive interaction
same,cell viability (trypan blue dye exclusion),[16],did not affect cell viability
same,activity against Plasmodium falciparum compared with other antimalarial drugs,[17],significantly more active
same,toxicity,[18],almost negligible toxicity
"C[C@H]1[C@H](OC(=O)CCC(=O)O)O[C@@H]2O[C@@]3(C)CC[C@H]4[C@H](C)CC[C@@H]1[C@@]24OO3 [Artesunate, artesunate]",IC50,[19],9.8 ± 1.7 µM
same,IC50,[20],1.92 ± 0.35 µM
same,IC50,[21],2.3 ± 0.94 µM
same,BAX level,[22]; HCT116^norm cells,no effect
same,BAX level,[22]; HCT116^poly cells,decrease
same,cyclin B level,[23]; HCT116^norm cells,decrease
same,cyclin B level,[23]; HCT116^poly cells,increase
"Nc1ccn([C@@H]2O[C@H](CO)[C@@H](O)C2(F)F)c(=O)n1 [Gemcitabine, gemcitabine]",IC50,[19],14 ± 1.6 µM
same,IC50,[21],1.9 ± 0.75 µM
same,IC50,[24],15 µM
"Nc1cccc2c1CN(C1CCC(=O)NC1=O)C2=O (stereo not drawn) [Lenalidomide, 1-oxo-2-(2,6-dioxopiperidin-3-yl)-4-aminoisoindoline]",IC50,[19],> 100 µM
same,IC50,[20],> 100 µM
same,IC50,[21],> 100 µM
same,effect on cell numbers and viabilities,[25],little effect
